Legend:
[1] = 101.33 kPa, Liquid; for speed of sound: Pulse-echo method
[2] = xn = mol fraction of the nth substance listed; conditions: 101 kPa, Liquid

c1ccncc1 [pyridine]
[1]
Conditions	mass density [kg/m3]	speed of sound [m/s]
293.15 K	983.053	1436.7
298.15 K	978.05	1416.7
303.15 K	972.98	1396.6

c1ccncc1 [pyridine] + CC(C)=O
[2]
Conditions	mass density [kg/m3]
293.15 K, x2 = 0.0577	973.393
293.15 K, x2 = 0.1007	966.028
293.15 K, x2 = 0.1536	956.946
293.15 K, x2 = 0.2043	948.163
293.15 K, x2 = 0.2219	945.011
293.15 K, x2 = 0.2968	931.713
293.15 K, x2 = 0.3537	921.354
293.15 K, x2 = 0.4051	911.899
293.15 K, x2 = 0.5191	890.383
293.15 K, x2 = 0.5519	884.082
293.15 K, x2 = 0.5969	875.296
293.15 K, x2 = 0.6425	866.297
293.15 K, x2 = 0.703	854.168
293.15 K, x2 = 0.7504	844.514
293.15 K, x2 = 0.8066	832.904
293.15 K, x2 = 0.8569	822.218
293.15 K, x2 = 0.9019	812.518
293.15 K, x2 = 0.9456	803.006
298.15 K, x2 = 0.0514	969.365
298.15 K, x2 = 0.0969	961.623
298.15 K, x2 = 0.1486	952.705
298.15 K, x2 = 0.2023	943.375
298.15 K, x2 = 0.2444	935.93
298.15 K, x2 = 0.296	926.692
298.15 K, x2 = 0.3544	916.021
298.15 K, x2 = 0.3965	908.33
298.15 K, x2 = 0.4516	898.006
298.15 K, x2 = 0.5036	888.119
298.15 K, x2 = 0.594	870.616
298.15 K, x2 = 0.6454	860.492
298.15 K, x2 = 0.6971	850.007
298.15 K, x2 = 0.7518	838.783
298.15 K, x2 = 0.8049	827.707
298.15 K, x2 = 0.8456	819.096
298.15 K, x2 = 0.8955	808.385
298.15 K, x2 = 0.9456	797.415
303.15 K, x2 = 0.0493	964.637
303.15 K, x2 = 0.0954	956.714
303.15 K, x2 = 0.1463	947.874
303.15 K, x2 = 0.1983	938.736
303.15 K, x2 = 0.2424	930.863
303.15 K, x2 = 0.2929	921.779
303.15 K, x2 = 0.3522	910.875
303.15 K, x2 = 0.4048	901.126
303.15 K, x2 = 0.4497	892.629
303.15 K, x2 = 0.497	883.593
303.15 K, x2 = 0.5412	875.069
303.15 K, x2 = 0.5965	864.243
303.15 K, x2 = 0.6594	851.677
303.15 K, x2 = 0.6912	845.142
303.15 K, x2 = 0.7491	833.115
303.15 K, x2 = 0.8475	812.305
303.15 K, x2 = 0.8946	802.071
303.15 K, x2 = 0.9443	791.125
